Experimental data taken from the METLIN SMRT retention time set (Domingo-Almenara et al. 2019).

Experiment: gradient 5% acetonitrile 3 min, to 50% in 2 min, to 85% in 15 min, held 3 min, 100 µL/min
Details: column: Zorbax Extend-C18 2.1 x 50 mm; eluents: water / acetonitrile, 0.1% formic acid
Method in brief: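 Retention times come from adduct peaks that were picked computationally and then checked by hand. The standards, pure and pooled in mixtures of ~100 molecules, were run on a Zorbax Extend-C18 column (2.1 × 50 mm, 1.8 μm) at 100 μL/min with water and acetonitrile, each with 0.1% formic acid. Detection was by quadrupole time-of-flight mass spectrometry in positive and negative ionization mode, with a dead volume of 40 μL and a dwell volume of 900 μL.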

Compound | RP-LC retention time
COc1ccc(S(=O)(=O)N2CCC(C(=O)Nc3ncnc4c3CCC4)CC2)cc1 | 664 s
CCOC(=O)c1c(C)n(Cc2ccco2)c2ccc(O)cc12 | 854 s
CCCCn1nnnc1NCc1ccc2c(c1)n(C)c(=O)n2C | 647 s
COc1cccc2cc(C(=O)NCc3ccc(S(N)(=O)=O)cc3)oc12 | 669 s
CN(CC1CCOCC1)C(=O)Nc1ccccc1C(F)(F)F | 738 s
O=C(NCc1ccccc1)C1CCCN(S(=O)(=O)c2cc(-c3noc(C4CCC4)n3)cs2)C1 (stereo not given) | 1080 s
O=S(=O)(c1cc(-c2nnc(C3CC3)o2)co1)N1CCN(c2ccccc2)CC1 | 960 s
CC(C)(C)c1ccc(C(=O)NC2CCN(c3cc(-c4ccc(F)cc4)[nH]n3)C2)cc1 (stereo not given) | 899 s
O=C(Nc1cc(F)cc(F)c1)Nc1cccc(-c2nccnc2N2CCOCC2)c1 | 940 s
CCNC(=O)c1ccc(-n2cccc2)nc1 | 708 s
Cn1nc(C(=O)Nc2onc3c2CSC3)ccc1=O | 585 s
CCn1c(=O)c(C(=O)NCc2ccccc2Br)nc2cccnc21 | 871 s
CCSc1nnc2c(n1)OC(c1cccn1C)N(C(C)=O)c1ccccc1-2 (stereo not given) | 788 s
COc1ccc(-c2cc(N3CCCC(C(=O)Nc4cccc5cccnc45)C3)ncn2)cc1 (stereo not given) | 629 s
Cc1cccc(NS(=O)(=O)c2ccc3c(c2)CCCC(=O)N3)c1C | 813 s
CC(C)c1nnc2ccc(N3CCOCC3)nn12 | 645 s
O=C1CCc2cc(OCCCCc3nnnn3C3CCCCC3)ccc2N1 | 880 s
CCOc1ccc(-c2noc(Cc3nnc(-c4cccc(Br)c4)o3)n2)cc1 | 1160 s
CCOc1ccc(N2CC(c3nc(-c4cccnc4)no3)CC2=O)cc1 (stereo not given) | 759 s
O=C(Cn1nc(C(=O)N2CCCC2)c2ccccc21)Nc1cccc(Cl)c1 | 875 s
CCOc1cc2c(cc1OCC)C1C(C(=O)NCCOC)c3ccccc3C(=O)N1CC2 (stereo not given) | 744 s
Cc1ccc(S(=O)(=O)NCCn2c(C)cnc2C2CCC2)c(C)c1 | 675 s
O=C(NCCc1csc(-c2cccs2)n1)C1CCN(C(=O)c2ccccc2)CC1 | 740 s

Compound | RP-LC retention time
O=C(CCC1CCCN(c2cc(NC3CC3)ncn2)C1)NCc1cccs1 (stereo not given) | 640 s
COCCCN(CC(=O)N1CCc2sccc2C1COc1ccccc1F)C(C)=O (stereo not given) | 764 s
Cc1nn2c(S(=O)(=O)N3CCCCC3)c(C(C)C)nc2s1 | 911 s
CC1Oc2ccc(NC(=O)C3CCCC3)cc2CN(Cc2ccccc2F)C1=O (stereo not given) | 864 s
O=C(NCc1nnc(SCc2ccccn2)o1)c1ccccc1 | 586 s
COc1ccc2c(c1)C=C(C(=O)NCCc1ccccc1)C=CO2 | 959 s
O=C(N[C@H]1C[C@@H]2C[C@H]1N(C(=O)COc1cccc(Cl)c1)C2)c1cccnc1 | 656 s
Cc1cnc(C(=O)NC2C[C@H]3CC[C@@H](C2)N3C(=O)c2cc(C)n(C)n2)cn1 (stereo not given in full) | 614 s
COc1ccc(NC(=O)Cn2c(C(F)(F)F)nc3cc4c(cc32)OCCO4)cc1 | 829 s
CCOC(=O)C1CCN(C(=O)c2cn3c(n2)CCCC3)CC1 | 586 s
Cc1cc(OCCN2CC2)c2ccccc2n1 | 664 s
CCOC(=O)C1CCC(CNC(=O)Nc2ccc3nc(N4CCN(C)CC4)cc(C)c3c2)CC1 (stereo not given) | 584 s
Cc1oc(-c2ccc(NC(=O)COc3ccccc3)cc2)nc1Cn1cccn1 | 887 s
COc1ccc(NC(=O)c2cc(C(C)C)n(C3CCS(=O)(=O)C3)n2)cc1 (stereo not given) | 831 s
CCN(CC)CCNC(=O)C1c2ccccc2Oc2ccccc21 | 655 s
CCOC(=O)c1ccccc1NC(=O)C1=Cc2ccccc2OC=C1 | 1410 s
COc1cc(OC)cc(C(=O)N2C[C@@H]3C[C@H](NC(=O)c4ccccc4)[C@H]2C3)c1 | 684 s
O=C1NC2(CCN(C(=O)NCc3ccccc3)CC2)Oc2ccccc21 | 963 s
CCC(CC)C(=O)Nc1nc(-c2ccc3c(c2)N(CC)C(=O)CO3)cs1 | 980 s
COc1ccc(S(=O)(=O)c2ccc(NCc3cccc(OC)c3)nn2)cc1 | 860 s
COc1ccc(C(=O)CSc2nc(CC(=O)NCc3cccnc3)cs2)cc1 | 589 s
CC(C)c1ccc(N2C(=O)C3N=NN(Cc4nc(-c5ccccc5Br)no4)C3C2=O)cc1 (stereo not given) | 1140 s
COc1ccccc1NC(=O)N1CCC(CNS(=O)(=O)c2cc(C)ccc2C)CC1 | 735 s

Compound | RP-LC retention time
CCCNC(=O)CCc1nc2ccccc2n(CC(=O)Nc2cccc(OC)c2)c1=O | 757 s
CCNC(=O)c1nc(-c2ccc(C)cc2)n2c1CCCCC2 | 738 s
Cc1cnc(C(=O)N2CCC(c3noc(-c4cnccn4)n3)C2)cn1 (stereo not given) | 630 s
CCC(=O)N(C1CCOCC1)C1CCN(S(=O)(=O)c2ccc(F)cc2)CC1 | 792 s
CC1=C(c2ccc(C)cc2)S(=O)(=O)N=C1N1CCCN(C(=O)c2cccc(C#N)c2)CC1 | 885 s
O=C(NCc1ccc2c(c1)OCO2)C1CCN(c2cnc(N3CCSCC3)nc2)CC1 | 763 s
COc1ccc(C(=O)Nc2nccnc2C(=O)NCC2CCCCC2)cc1 | 1120 s
O=C(Nc1ccccc1C(F)(F)F)NC1CCN(c2ccccc2)C1=O (stereo not given) | 841 s
CCOC(=O)C1CCN(C(=O)C2CCN(S(=O)(=O)c3ccc4c(c3)CCCC(=O)N4)CC2)CC1 | 713 s
CCc1sc(NC(=O)Cc2ccc(F)cc2)nc1-c1ccccc1 | 1110 s
O=C(Cc1nnc(-c2ccc3ncccc3c2)o1)NC1CCCCCC1 | 807 s
Cn1cc(-c2cc3n(n2)CCC(=O)N3CC(=O)NCCCN2CCCCC2)c2ccccc21 | 616 s
CN(C)c1ccc(C(=O)N2CCN(C(=O)c3nnn4c3COC(c3ccc(Cl)cc3)C4)CC2)cc1 (stereo not given) | 935 s
Cc1ccc(NC(=O)C2CCc3sc(C(=O)N4CCOCC4)cc3C2)cc1C (stereo not given) | 570 s
COc1ccc(OC)c(NC(=O)Cn2cnc3cc4c(cc32)OCCO4)c1 | 641 s
COc1cc(NC(=O)CN2CCN(c3ccccn3)CC2)cc(OC)c1 | 587 s
O=C(Cc1ccc(NC(=O)c2ncc(-c3ccccc3)o2)cc1)NCc1cccs1 | 866 s
Cc1cc(C)cc(NC(=O)C2CCCN(S(=O)(=O)c3cn(C(C)C)cn3)C2)c1 (stereo not given) | 876 s
CCC(C)C(NC(=O)c1cc(F)cc(F)c1)C(=O)Nc1nc2ccccc2[nH]1 (stereo not given) | 787 s
CC(C)c1noc(C2(NC(=O)c3ccc(Cl)cc3)CCCCC2)n1 | 1100 s
CCc1ccc(S(=O)(=O)NCC(c2cccs2)N2CCOCC2)s1 (stereo not given) | 644 s
CC(C)NC(=O)CN1CCN(Cc2nc(-c3ccc(N4CCCCC4)nc3)no2)CC1 | 594 s
Cc1ccc(CNC(=O)CN2C(=O)C(Oc3ccc(F)cc3)C23CCCCC3)o1 (stereo not given) | 1020 s

Compound | RP-LC retention time
COC[C@@H]1CN(Cc2cn(C)c3ccccc23)C[C@H]1c1nc(C)no1 | 656 s
Cc1nn(C)c(C)c1C(C)NC(=O)C1CCN(c2cnn(Cc3ccccc3)c(=O)c2)CC1 (stereo not given) | 650 s
CCSc1nc2ccc(NS(=O)(=O)c3ccc(F)cc3F)cc2s1 | 1020 s
Cc1ccc(CNC(=O)C2CCCN2S(=O)(=O)c2cc3c(cc2C)NC(=O)C(C)O3)cc1 (stereo not given) | 824 s
COc1ccc(C)cc1NC(=O)c1nc(C)oc1C | 1020 s
CCS(=O)(=O)c1nc2ccc(NS(=O)(=O)c3ccc4c(c3)CCCC4)cc2s1 | 1010 s
O=C(NCc1ccco1)N1CCN(c2nc3ccccc3n(Cc3ccccc3)c2=O)CC1 | 967 s
O=C(Nc1nccnc1C(=O)NCCCN1CCCC1)c1ccccc1 | 609 s
Cc1cc(C(=O)NCc2ccc3c(c2)OCO3)c2ccccc2n1 | 637 s
CCc1ccc(NC(=O)N2CCCC(C)(C(=O)NCc3ccc(C)cc3)C2)cc1 (stereo not given) | 1040 s
COc1cccc(Cn2ccn3nc(-c4ccc5c(c4)OCO5)cc3c2=O)c1 | 970 s
Cc1cc(N2CCC(NC(=O)Nc3cc(F)cc(F)c3)C2=O)ccc1F (stereo not given) | 931 s
O=C(Nc1ccc(Cl)cc1F)N1CCC(n2c(-c3ccco3)nc3cccnc32)C1 (stereo not given) | 827 s
O=C(Cn1nc(C(=O)N2CCCC2)c2ccccc21)Nc1cccc(C(F)(F)F)c1 | 912 s
O=C(c1cccnc1)N1CCC(n2nc(-c3ccsc3)ccc2=O)CC1 | 650 s
CCCN1CCCCc2cc(C(=O)N(C)CC(=O)NC)sc21 | 791 s
CC(C)n1c(=O)c(NCc2ccccc2Cl)nc2ccncc21 | 596 s
COc1ccc(Cc2nnc3sc(-c4ccc(OC)cc4OC)nn23)cc1 | 1030 s
CCC(CC)NC(=O)C1CCN(c2cn[nH]c(=O)c2)CC1 | 604 s
Cc1nc(-c2ccc(N3CCN(C(=O)c4cccs4)CC3)nc2)sc1C | 823 s
O=C(NCCc1csc(-c2ccccc2)n1)C1CCN(C(=O)COc2ccccc2)CC1 | 806 s
